Values joined by “and” are separate entries in the source; they are usually repeats but may differ in a detail not shown here. Equal values may be shown once. Where no end group is shown, it is not given here.
Key:
[1] = target: T1, human ALX receptor (Homo sapiens, UniProt P25090); assay: Competitive binding assay with [125I-Tyr]-Ac2-26 tracer on ALX-HEK transfected cells; conditions: HEK cells overexpressing human ALX, 1x10^6 cells/ml; tracer 50nM; peptide 0.1nM-10μM; 1h, 4°C; mean of 3-4 independent experiments; read-out: IC50, displacement of 125I labelled Ac2-26 from ALX receptor
T1 construct: expressed in transfected cells; host or cells: HEK cells
T1 sequence (P25090 1-351): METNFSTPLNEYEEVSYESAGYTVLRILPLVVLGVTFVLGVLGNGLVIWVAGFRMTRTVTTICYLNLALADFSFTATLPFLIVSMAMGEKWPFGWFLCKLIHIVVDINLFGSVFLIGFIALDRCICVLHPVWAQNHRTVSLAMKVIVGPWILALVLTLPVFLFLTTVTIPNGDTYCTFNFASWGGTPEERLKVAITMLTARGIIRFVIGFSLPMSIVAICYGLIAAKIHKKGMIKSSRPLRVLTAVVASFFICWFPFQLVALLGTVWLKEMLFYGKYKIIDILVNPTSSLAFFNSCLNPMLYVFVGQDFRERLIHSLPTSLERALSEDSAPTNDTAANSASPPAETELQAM
Procedure: Binding experiments were conducted as in [13]. Briefly FPR1-human embryonic kidney (HEK)–or ALX-HEK—transfected cells (1x10^6 cells/ml) were incubated with increasing concentrations of cold CR-AnxA1_2-50, CR-AnxA1_2-48 (0.1nM-10μM) or PBS and a fixed concentration (50nM) of [^125I-Tyr]-Ac2-26 for (1h, 4°C). Bound and unbound tracer were separated by filtration through Whatman GF/C glass microfibre filters (Kent, United Kingdom) using a vacuum manifold, and the amount of tracer bound to the cells was quantified by counting filters in a gamma-counter.

[2] = tested on: activated human neutrophils; assay: Neutrophil-mediated degradation (peptide remaining in incubations with activated human neutrophils); type: in vitro ADME; conditions: incubation with activated human neutrophils; compared to parent peptide CR-AnxA1_2-50; mean ± SEM of n = 4 distinct incubations
Procedure: Therefore, we designed a peptide that in addition to having a substitution of Valine25 to Leucine, which we previously found to confer resistance to proteinease-3 and neutrophil elastae, also lacked Alanines at positions 49 and 50 (Fig 1A).
Fig 1 CR-AnxA1_2-48 is resistant to neutrophil mediated cleavage and selectively binds the ALX receptor. (A) Aminoacid sequences for CR-AnxA1_2–50 and CR-AnxA1_2–48 (B) Plots depicting the amount of peptide remaining at the indicated intervals in incubations of human neutrophil with CR-AnxA1_2–50 or CR-AnxA1_2–48. Results are mean ± SEM of n = 4 distinct incubations with different neutrophil preparations. *p < 0.05 versus AnxA1_2–48 incubations. (C,D) Binding affinity of CR-AnxA1_2–48 to (C) human ALX-overexpressing and (D) FPR1-overexpressing HEK cells was assessed in a competitive binding assay using [^125I]–Ac2-26. (E) Agonist activity of CR-AnxA1_2–48 was investigated using β-arrestin stably expressing FPR2/ALX. Results for C-E are mean ± SEM of 3–4 independent experiments. TEXT PRINTED IN THE PICTURE: (C) CR-ANXA12-48: IC50= 20 nM

[3] = tested on: ALX; conditions: cited from earlier work
Description: The ALX receptor is a G-protein coupled receptor that mediates the biological actions of a number of pro-resolving molecules including the essential fatty acid derived specialized pro-resolving mediators Resolvin D1, Resolvin D3 and Lipoxin A4 [32].

Row | IC50 [1] | Substance | Resistance to neutrophil mediated cleavage (amount of peptide remaining) [2] | Binding affinity to ALX relative to FPR1 [3]
1 | ~20 nM and 20 nM | AMVSEFLKQAWFIENEEQEYVQTLKSSKGGPGSAVSPYPTFNPSSDV-NH2 [CR-AnxA1_2-48] | significant increase in resistance to neutrophil mediated cleavage | –
2 | – | fMLF | – | about a log order lower
